Key:
Type in all cases: cell-based
[1] = test system: PC3-dox inducible luciferase cell line; assay: Nanoluc counterscreen in PC3-dox inducible luciferase cell line; details: Supplementary Table 1
Description: Compounds were first screened for their inhibition of AR-V7 transcriptional activity. To do so, we created a PC3 cell-based population that stably encodes (i) a doxycycline-inducible AR-V7 cDNA sequence (pLIX402 tet-inducible promoter, puromycin selection), and (ii) the ARR3tk-nanoLuciferase reporter construct. […] This allowed the screening of the compounds without using the error-prone method of transiently transfecting V7 and reporter constructs. The inhibition efficacy of compounds was measured using doxycycline treatment along with an increasing dose of compounds. From this screen, a panel of compounds was identified with some anti-dimerization activity (Supplementary Table S1). […] To rule out direct effects of the compounds on luciferase expression or PC3 cell viability, we used a PC3-dox inducible luciferase cell line in parallel.
(§1) LNCaP cells incorporating an AR2PB-eGFP reporter construct (2 × probasin) are previously described. eGFP and secreted PSA assays were performed as described. […] PC3_iV7_3TKNluc or PC3_iNluc cells were seeded in DMEM +5% CSS at 5000 cells/well for 24 h, followed by adding doxycycline/compounds (18 h) and luminescence measurement. LNCaP and 22rv1 cells were starved in RPMI + CSS (48 h) before cell viability tests using the same conditions as above, followed by 30 μL/well PrestoBlue™ Reagent (1 h) and fluorescence measurement (TECAN F200).

22rv1 cells = assay: Cell viability (PrestoBlue), 22rv1; details: for growth inhibition of 22rv1 cell line: result in words
Protocol: VPC-17160 and VPC-17281 were further evaluated for their potential to inhibit the growth of prostate cancer cell lines LNCaP (AR-FL dependent) and 22rv1 (AR-V7 dependent).
LNCaP cells incorporating an AR2PB-eGFP reporter construct (2 × probasin) are previously described. eGFP and secreted PSA assays were performed as described. The mammalian two-hybrid assay was performed in PC3 cells by co-transfection of 15 ng pA-AR or pB-AR plasmids, with 12.5 ng PG5-NLuc reporter. PC3_iV7_3TKNluc or PC3_iNluc cells were seeded in DMEM +5% CSS at 5000 cells/well for 24 h, followed by adding doxycycline/compounds (18 h) and luminescence measurement. LNCaP and 22rv1 cells were starved in RPMI + CSS (48 h) before cell viability tests using the same conditions as above, followed by 30 μL/well PrestoBlue™ Reagent (1 h) and fluorescence measurement (TECAN F200).

full-length AR = target: T1, full-length AR (Homo sapiens, UniProt P10275); assay: Mammalian two-hybrid (M2H) AR dimerization assay in PC3 cells; details: result in words
T1 construct: Full-length AR cDNA were cloned using Polymerase Incomplete Primer Extension; expressed in transfected cells; host or cells: PC3 (transient co-transfection of pA-AR, pB-AR and PG5-NLuc)
T1 sequence (P10275 1-920): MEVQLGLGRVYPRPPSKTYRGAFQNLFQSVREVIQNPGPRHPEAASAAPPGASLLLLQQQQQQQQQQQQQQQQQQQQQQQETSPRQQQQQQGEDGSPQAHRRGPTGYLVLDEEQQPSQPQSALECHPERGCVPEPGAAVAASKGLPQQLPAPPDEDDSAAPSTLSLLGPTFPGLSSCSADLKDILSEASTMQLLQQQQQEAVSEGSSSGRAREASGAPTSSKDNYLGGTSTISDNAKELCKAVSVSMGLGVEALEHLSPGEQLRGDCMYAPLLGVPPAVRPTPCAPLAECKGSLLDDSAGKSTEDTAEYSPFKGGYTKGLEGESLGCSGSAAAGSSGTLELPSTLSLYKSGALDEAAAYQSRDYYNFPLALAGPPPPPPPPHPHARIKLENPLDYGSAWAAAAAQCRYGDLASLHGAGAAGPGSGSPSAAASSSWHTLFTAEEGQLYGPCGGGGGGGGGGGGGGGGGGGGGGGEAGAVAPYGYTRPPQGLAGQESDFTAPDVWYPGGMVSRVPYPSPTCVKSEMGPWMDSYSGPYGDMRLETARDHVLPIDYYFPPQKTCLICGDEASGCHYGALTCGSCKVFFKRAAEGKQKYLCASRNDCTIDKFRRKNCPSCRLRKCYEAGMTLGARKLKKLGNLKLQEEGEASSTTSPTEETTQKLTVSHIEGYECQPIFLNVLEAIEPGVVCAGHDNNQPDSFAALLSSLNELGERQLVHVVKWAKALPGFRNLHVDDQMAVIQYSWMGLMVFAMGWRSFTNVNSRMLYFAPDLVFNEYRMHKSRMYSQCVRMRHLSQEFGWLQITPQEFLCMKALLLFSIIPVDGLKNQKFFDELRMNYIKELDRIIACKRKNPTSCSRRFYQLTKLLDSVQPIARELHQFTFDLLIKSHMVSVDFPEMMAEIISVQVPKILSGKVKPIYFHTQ
Protocol: Next, the dimerization of full-length AR was assessed by a mammalian two-hybrid (M2H, [30]) assay, where target proteins were fused with Gal4-DBD or VP16 domains. […] High concentrations of VPC-17005 (>20 μM) were required for significant reduction in AR and AR-V7 homo-dimerization.
Figure 3 Anti-dimerization effects of VPC-17160 and VPC-17281 at 20 μM concentraction. PC3 cells were co-transfected with plasmids encoding pA-AR and pB-AR and pG5-NLuc-Gal4 specific reporter. Cells were treated with 0.1% DMSO control, VPC-17160, VPC-17281, or VPC-17005 followed by Nanoluciferase measurement. p < 0.05 (*), p < 0.01 (**) were considered statistically significant (two-tailed t-test). Two-tailed t-test for VPC-17005 vs. 17160 p < 0.05; VPC-17005 vs. VPC-17281 p < 0.05.
Full-length human AR (hARWT) was encoded on pcDNA3.1 expression plasmid. […]
as §1

PC3 cell line = assay: Activity in the PC3 cell line; details: off-target effects; result in words

SMILES	Nanoluc Counterscreen (10 μM) [1] [%]	growth inhibition of 22rv1 cell line (22rv1 cells)	reduction of dimerization at 20 μM (full-length AR)	effect on the PC3 cell line (PC3 cell line)	IC50 (22rv1 cells; Homo sapiens, 22rv1 (AR-V7 dependent), read-out: IC50, cell growth) [µM]
O=C(NCc1cccc2ccccc12)NCC(O)(c1cccs1)c1cccs1 [VPC-17160]	20	inhibited the growth	full reduction of dimerization	no effect	
CC(O)(CNC(=O)C=Cc1ccnc2ccccc12)c1ccsc1 (stereo not drawn) [VPC-17281]	10	inhibited the growth	full reduction of dimerization	some activity	10

Reference: publication PMC7958344, “Development of Novel Inhibitors Targeting the D-Box of the DNA Binding Domain of Androgen Receptor” (International Journal of Molecular Sciences, 2021)
